Drawing on PubChem BioAssay AID1347409 (Pan Lab, Icahn School of Medicine at Mount Sinai, 2020), this text covers EC50 for eleven compounds.

This experiment concerns MV4-11 apoptosis, Annexin V flow cytometry, 48 h. Kind of experiment: MV4-11 leukemia cell apoptotic death – Annexin V, flow cytometry, dose response (AID 1347409). Background: A flow cytometer gives signals particle by particle.

Records with an inconclusive call do not appear. Active and inactive are the calls of the source.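 Rule for the calls: active = EC50 at or below 10 µM; inconclusive = EC50 above 10 and up to 20 µM; inactive = EC50 above 20 µM.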

For `CCCCCCCCCOc1ccc(C#CC(=O)O)cc1`, the EC50 (commonly the concentration giving half of the maximal effect) was 32.4 µM (inactive).

For the compound `CCNc1ccc(Br)cc(C(=O)/C=C/c2c(Cl)cccc2Cl)c1=O`, the concentration for a half-maximal effect (EC50) is 4.4 µM. With `COc1ccc(C=C2C(=O)N(Cc3ccco3)C(=O)N(C(C)C)C2=O)cc1`, the EC50 was 60 µM (inactive). As for `Cc1ccc(NC(=O)c2ccc(Cl)cc2Cl)c(S(=O)(=O)O)c1`, the EC50 was 90.1 µM (inactive). Take `CCOc1ccc2nc3cc(NC(=O)c4ccco4)ccc3c(N)c2c1`: the EC50 was 1.3 µM. `CCOc1cccc2c1N[C@@H](c1ccc(C(=O)O)cc1)[C@H]1CC=C[C@@H]21`: the EC50 was 113 µM (inactive). Then `CN(CCC(=O)C=Cc1ccc(Cl)c(Cl)c1)CCc1ccc2c(c1)OCO2`, with 5.2 µM. Then `Cc1ccc([C@@H]2Nc3c(ccc(C(=O)O)c3C)[C@@H]3C=CC[C@@H]32)cc1`, with 94.8 µM (inactive). Turning to `NCCCSc1nc2c(c(=O)n1Cc1ccccc1)C1(CCCCC1)Cc1ccccc1-2`, the EC50 was 2.4 µM. As to `CCOC(=O)c1c(NC(=O)CCC(=O)O)sc(C)c1-c1ccc(CC(C)C)cc1`, the EC50 is 33.6 µM (inactive).

Turning to `Cc1ccc2c(c1)-c1c(c(C(=O)N3CCN(c4cc(C)ccc4C)CC3)nn1C)CS2`, the EC50 was 68.2 µM (inactive).
